Holding throughout (assay type): cell-based
In assay [1] the target is T1, MRGPRX2 (Homo sapiens, UniProt Q96LB1).
T1 sequence (Q96LB1 1-330): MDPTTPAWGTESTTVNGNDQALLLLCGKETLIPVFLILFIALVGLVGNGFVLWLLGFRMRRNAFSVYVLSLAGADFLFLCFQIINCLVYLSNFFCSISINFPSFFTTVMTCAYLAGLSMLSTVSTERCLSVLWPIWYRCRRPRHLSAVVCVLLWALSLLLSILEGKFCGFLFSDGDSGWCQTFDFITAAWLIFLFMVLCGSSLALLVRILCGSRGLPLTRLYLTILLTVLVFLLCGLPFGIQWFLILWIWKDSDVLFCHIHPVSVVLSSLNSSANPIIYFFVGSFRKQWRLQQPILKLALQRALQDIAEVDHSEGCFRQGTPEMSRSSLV
Nature of the assay: MRGPRX2 FLIPR calcium mobilization assay. Further details: host or cells: CHO-K1. The settings on record: CHO-K1 cells stably expressing human MRGPRX2; Ca2+ release; agonist Cortistatin-14 at EC80. The procedure:
Chinese hamster ovary (CHO-K1) cells stably expressing human MRGPRX2 were purchased from Genescript (Piscataway, NJ). The cells were maintained in culture medium (Ham's F-12K) containing 10% (v/v) FBS, 200 μg/mL Zeocin, 100 units/mL penicillin G and 100 μg/mL streptomycin (Life Technologies, Carlsbad, CA). For the assay, the cells were harvested and resuspended with culture medium without Zeocin before plating at 8000 cells per well in 20 μL in 384-well black clear bottom cell culture plates (VWR, Radnor, PA). After 24 hour culture at 37° C. and 5% CO2, the cells were loaded with 20 μL/well of calcium dye (FLIPR Calcium 6 Assay Kit, Molecular Devices, San Jose, CA) diluted in loading buffer (1× Hank's Balanced Salt Solution (HBSS), 5 mM probenecid, 20 mM 4-(2-hydroxyethyl)-1-piperazineethanesulfonic acid (HEPES), pH 7.4, VWR, Radnor, PA) followed with 45 min incubation at 37° C. and 40 min. at r.t. in the dark. Cells were then treated with the addition of 10 uL/well test compounds with a range of increasing concentrations diluted in the assay buffer (1×HBSS, 20 mM HEPES, pH 7.4, VWR, Radnor, PA) with FLIPR Penta (Molecular Devices. San Jose, CA) and incubated for 30 min. at r.t. Ca^2+ release was measured with FLIPR Penta with 10 s basal fluorescence measurement, then 12.5 μL of 5× agonist Cortistatin-14 (Tocris, Minneapolis, MN) at final concentration corresponding to the EC80 were added followed with continued fluorescence signal monitoring for an additional 110 s. The base line adjusted (median of first 10 s base line) max value of the Relative Fluorescence Unit (RFU) was plotted against compound concentrations. Wells with no compound were served as the positive controls, and wells with high concentration of reference antagonist were used as negative controls. IC50 curves were globally fitted with 3- or 4-parameter Hill equation in a Genedata Screener (Genedata Basel, Switzerland).

Assay [2] addresses T1, MRGPRX2. The experiment in a line: MRGPRX2 IP1 HTRF assay. The settings on record: CHO-K1 cells stably expressing human MRGPRX2; IP1 accumulation; agonist Cortistatin 14 1 μM. Further details: host or cells: CHO-K1. The procedure:
This assay measures compound inhibition of myo-Inositol 1 phosphate (IP1) accumulation in CHO-K1 cells. Chinese hamster ovary (CHO-K1) cells stably expressing human MRGPRX2 were purchased from GenScript (Piscataway, NJ).
For the HTRF IP1 determination, an IP-One GqKit (Perkin Elmer Cisbio, Waltham, MA), which includes all reagents and buffers in this protocol, was used. The cells were maintained in culture medium (Ham's F-12K) containing 10% (v/v) FBS, and 200 μg/mL Zeocin. For the assay, the cells were harvested and resuspended in culture medium with 2% FBS and without Zeocin, then were passed through a 40 μm filter. Cells were added at 20000 cells in a 5 μL/well to a 384-well white small volume cell culture plate (Greiner VWR, Radnor, PA) which contained 50 nL/well of test compound serially diluted at a selected concentration range in DMSO. 5 μL/well of prepared 2× Stimulation Buffer 2 was then added to plates and was incubated at 37° C. with 5% CO2 for 1 h. 5 μL/well of agonist Cortistatin 14 (Bio-TechneR&D Systems, Minneapolis, MN) in 1× Stimulation Buffer 2, for a 1 μM final concentration, was then added to plates and incubated at 37° C. with 5% CO2 for 1 h. 6 μL/well of 1:20 diluted Detection Reagent Mix (d2 and Cryptate) was added to the plates and incubated for 1 h in the dark. Plates were read on the PHERAstar microplate reader (BMG Labtech Cary, NC) to determine the HTRF ratio of the acceptor and donor emission signals. The IP1 concentrations were calculated from a standard curve following the IP-One GQ kit instructions. Wells with DMSO only and wells with high concentration of reference antagonist were used as controls for normalization. Compound IC50 curves were globally fitted with 3- or 4-parameter Hill equation in a Genedata Screener (Genedata Basel, Switzerland).
Background: Time-resolved FRET reads energy transfer from a long-lived donor to a nearby acceptor.

Assay [3] has as its target T1, MRGPRX2. Nature of the assay: MRGPRX2 β-Arrestin assay. Further details: host or cells: PathHunter CHO-K1. The following applies: PathHunter CHO-K1 MRGPRX2 β-Arrestin cell line; agonist Cortistatin 14 0.25 μM. The text has this:
This assay measures compound inhibition of β-Arrestin recruitment, which is part of the G protein-independent pathway that results from the ligand-activated GPCR phosphorylation by specific GPCR kinases. The PathHunter CHO-K1 MRPGRX2 β-Arrestin Cell line stably expressing ProLink tagged MRGPRX2 and Enzyme Acceptor Tagged β-Arrestin was purchased from Eurofins DiscoverX, (Fremont, CA).
The cells were maintained in culture medium from the Europhins DiscoverX Cell Culture Kit-107 which includes FBS, hygromycin B and G418. For the assay, the cells were harvested and were resuspended with Cell Plating Reagent 2 (Eurofins DiscoverX). Cells were added 10000 cells in 25 μL/well to a 384-well black cell culture plate (Greiner VWR, Radnor, PA) which contained 125 nL/well of compound at a selected serially diluted concentration range or DMSO. The plate was incubated at 37° C. with 5% CO2 for 1 h. 2 μL/well of agonist Cortistatin 14 was diluted in Protein Dilution Buffer, (Eurofins DiscoverX) for a final concentration of 0.25 μM, was added and the plate was incubated at 37° C. with 5% CO2 for 90 min. 14 μL/well of Detection Reagent Mix (PathHunter Detection Kit, Eurofins DiscoverX) was added to the plates and further incubated for 1 h in the dark. Plates were read on the PHERAstar microplate reader (BMG Labtech Cary, NC) measuring luminescence 0.1 to 1 s per well. Data was normalized using DMSO only wells and wells with high concentration of reference antagonist as controls. Compound IC50 curves were globally fitted with 3- or 4-parameter Hill equation in a Genedata Screener (Genedata Basel, Switzerland).

For orientation: IC50 means the concentration at which inhibition is half-maximal. With `Cn1cnc2ccnc(N[C@@H]3CCC[C@H](Nc4cc(C(F)(F)F)nc5ccccc45)C3)c21` [Example 15, (1R,3S)-N^1-(3-Methyl-3H-imidazo[4,5-c]pyridin-4-yl)-N^3-(2-(trifluoromethyl)quinolin-4-yl)cyclohexane-1,3-diamine], the IC50 was in the range of 0.1 to 100 nM on MRGPRX2 [1], 100 to 1000 nM on MRGPRX2 [2] and 0.1 to 100 nM at MRGPRX2 [3].
As for `FC(F)(F)c1cc(N[C@H]2CCC[C@@H](Nc3ccccn3)C2)c2cc(Cl)ccc2n1` [Example 12, (1S,3R)-N^1-(6-Chloro-2-(trifluoromethyl)quinolin-4-yl)-N^3-(pyridin-2-yl)cyclohexane-1,3-diamine], the values for the IC50 on MRGPRX2 [1] and on MRGPRX2 [2] were 0.1 to 100 nM and 100 to 1000 nM, respectively.
The like results for `Cn1cnc2ncnc(N[C@@H]3CCC[C@H](Nc4cc(C(F)(F)F)nc5ccc(Cl)cc45)C3)c21` [Example 8, (1S,3R)-N^1-(6-Chloro-2-(trifluoromethyl)quinolin-4-yl)-N^3-(7-methyl-7H-purin-6-yl)cyclohexane-1,3-diamine] were, in that order, 0.1 to 100 nM and 0.1 to 100 nM.
`FC(F)(F)c1cc(N[C@H]2CCC[C@@H](Nc3nnc4n3CCC4)C2)c2cc(Cl)ccc2n1` [Example 34, (1S,3R)-N^1-(6-Chloro-2-(trifluoromethyl)quinolin-4-yl)-N^3-(6,7-dihydro-5H-pyrrolo[2,1-c][1,2,4]triazol-3-yl)cyclohexane-1,3-diamine]: the IC50 on MRGPRX2 [1] was 0.1 to 100 nM; on MRGPRX2 [2] it was 100 to 1000 nM.
As to `Cn1cnc2ccnc(N[C@H]3CC[C@@H](Nc4cc(C(F)(F)F)nc5ccc(Cl)cc45)CC3)c21` [Example 7, (1s,4s)-N^1-(6-Chloro-2-(trifluoromethyl)quinolin-4-yl)-N^4-(3-methyl-3H-imidazo[4,5-c]pyridin-4-yl)cyclohexane-1,4-diamine], the IC50 at MRGPRX2 [1] and at MRGPRX2 [2] was 0.1 to 100 nM in each case.
For `Cn1ncc2c(N[C@@H]3CCC[C@H](Nc4cc(C(F)(F)F)nc5ccc(Cl)cc45)C3)ncnc21` [Example 31], the IC50 on MRGPRX2 [1] and at MRGPRX2 [2] was 0.1 to 100 nM each time.
Turning to `FC(F)(F)c1cc(N[C@H]2CCC[C@@H](Nc3nccn4nccc34)C2)c2cc(Cl)ccc2n1` [Example 30, (1S,3R)-N^1-(6-Chloro-2-(trifluoromethyl)quinolin-4-yl)-N^3-(pyrazolo[1,5-a]pyrazin-4-yl)cyclohexane-1,3-diamine], the IC50 at MRGPRX2 [1] and on MRGPRX2 [2] was 0.1 to 100 nM in each case.
Turning to `FC(F)(F)c1cc(N[C@H]2CCC[C@@H](Nc3ccnc4ncccc34)C2)c2cc(Cl)ccc2n1` [Example 27, (1S,3R)-N^1-(6-Chloro-2-(trifluoromethyl)quinolin-4-yl)-N^3-(1,8-naphthyridin-4-yl)cyclohexane-1,3-diamine], the IC50 fell in the range of 0.1 to 100 nM at MRGPRX2 [1] and 100 to 1000 nM on MRGPRX2 [2].
For `Cn1c(N[C@@H]2CCC[C@H](Nc3cc(C(F)(F)F)nc4ccc(Cl)cc34)C2)nc2cnccc21` [Example 32, (1S,3R)-N^1-(6-Chloro-2-(trifluoromethyl)quinolin-4-yl)-N^3-(1-methyl-1H-imidazo[4,5-c]pyridin-2-yl)cyclohexane-1,3-diamine] the same measures were 0.1 to 100 nM and 0.1 to 100 nM.
With `FC(F)(F)c1cc(N[C@H]2CCC[C@@H](Nc3nccn4cncc34)C2)c2cc(Br)ccc2n1` [Example 29, (1S,3R)-N^1-(6-bromo-2-(trifluoromethyl)quinolin-4-yl)-N^3-(imidazo[1,5-a]pyrazin-8-yl)cyclohexane-1,3-diamine], the IC50 on MRGPRX2 [1] and at MRGPRX2 [2] was 0.1 to 100 nM throughout.
Consider `Cn1ncc2ccnc(N[C@@H]3CCC[C@H](Nc4cc(C(F)(F)F)nc5ccc(Cl)cc45)C3)c21` [Example 2, (1S,3R)-N^1-(6-Chloro-2-(trifluoromethyl)quinolin-4-yl)-N^3-(1-methyl-1H-pyrazolo[3,4-c]pyridin-7-yl)cyclohexane-1,3-diamine], for which the IC50 on MRGPRX2 [1] fell in the range of 0.1 to 100 nM; on MRGPRX2 [2], 100 to 1000 nM.
With `Fc1ccc2nc(C(F)(F)F)cc(N[C@H]3CCC[C@@H](Nc4nccn5cncc45)C3)c2c1` [Example 28, (1S,3R)-N^1-(6-fluoro-2-(trifluoromethyl)quinolin-4-yl)-N^3-(imidazo[1,5-a]pyrazin-8-yl)cyclohexane-1,3-diamine], the IC50 on MRGPRX2 [1] and at MRGPRX2 [2] was 0.1 to 100 nM throughout.
Turning to `FC(F)(F)c1cc(N[C@H]2CCC[C@@H](Nc3cc(N4CCOCC4)ccn3)C2)c2cc(Cl)ccc2n1` [Example 3, (1S,3R)-N^1-(6-Chloro-2-(trifluoromethyl)quinolin-4-yl)-N^3-(4-morpholinopyridin-2-yl)cyclohexane-1,3-diamine], the IC50 at MRGPRX2 [1] and on MRGPRX2 [2] was 100 to 1000 nM throughout.
Consider `FC(F)(F)c1cc(N[C@H]2CCC[C@@H](Nc3nccc4cnccc34)C2)c2cc(Cl)ccc2n1` [Example 6, (1S,3R)-N^1-(6-Chloro-2-(trifluoromethyl)quinolin-4-yl)-N^3-(2,6-naphthyridin-1-yl)cyclohexane-1,3-diamine], for which the IC50 on MRGPRX2 [1] is 0.1 to 100 nM; at MRGPRX2 [2], 100 to 1000 nM.
On to `FC(F)(F)c1cc(N[C@H]2CCC[C@@H](Nc3nccc4nccn34)C2)c2cc(Cl)ccc2n1` [Example 18, (1S,3R)-N^1-(6-Chloro-2-(trifluoromethyl)quinolin-4-yl)-N^3-(imidazo[1,2-c]pyrimidin-5-yl)cyclohexane-1,3-diamine], for which the IC50 on MRGPRX2 [2] and on MRGPRX2 [3] was 0.1 to 100 nM in each case.

These data come from patent US20250270208A1, “BICYCLIC HETEROCYCLES AS MRGPRX2 ANTAGONISTS” (Incyte Corporation, priority 2023, published 2025).
